Series [1] concerns the target (^3 H)naloxone binding sites. Briefly: competition binding assay with (3H)naloxone on rat brain membranes. The note with it: membranes incubated with (3H)naloxone 1 nM and increasing ligand concentrations; read-out: Affinity constants (Ki nM) in competition assays. The method, then: (§1) Membrane preparation: A crude membrane fraction from rat brain (PVG/C strain) was prepared [Mol. Pharm.11 (1975) 340-351 and the protein content was defined [Anal. Biochem. 72(1976) 248-254).
(§2) The membrane suspension (200-400 μg protein) was incubated with the specific radioligand for 1 hour on ice. Incubations were terminated by rapid filtration under vacuo followed by washing with ice cold tris HCl buffer (50 mM, pH 7,4). Radioactivity was measured in a toluene based scintillation mixture on a LKB Minibeta Liquid Scintillation Spectrophotometer. Nonspecific binding was defined in the presence of 10 μM unlabeled naloxone. All assays were performed in triplicate and repeated several times. Ki values were determined from equilibrium experiments and calculated with the Tshang-Prusov equation. The data were evaluated using the Ligand program [Anal. Biol. Chem. 107 (1980) 220-239](Data shown on Table III/1).

The test system of series [2] is rats. Briefly: sedative (narcosis potentiating) effect, Inactine base narcotic, rats. It is filed as in vivo. The method, then: Inactine (35 mg/kg) was used as a base narcotic.
*ED500 % = dose increasing narcosis to five times the control.

Series [3] concerns rat. Briefly: analgetic effect, hot plate (rat). It is filed as in vivo.
The test system of series [4] is rat. Briefly: animal or person. The note with it: read-out: algolyt. test (rat) 100% activity.
The subject of series [5] is rat. Briefly: analgetic effect, tail flick (rat). It is filed as in vivo.
In series [6] the test system is rabbits. In words: effects on respiration on conscious rabbits (III.5, Marey-drum). The method, then:
Investigation was carried out on conscious rabbits of both sexes and of 3-4 kg weight by way of a Marey-drum. Frequency and amplitude of respiration were quantitatively evaluated.

The subject of series [7] is mice. Briefly: analgetic effect, writhing test (mice). It is filed as in vivo. On the technique in general: In writhing tests, fewer writhes than in controls are read as antinociception.
Series [8] concerns the target (^3 H)naloxone binding sites. In words: wash-resistant binding of (3H)naloxone, rat brain membranes. The note with it: preincubated with (3H)naloxone 1 nM and test compound; remaining specific binding after several washings; average of 2-4 data; compound.HCl; read-out: Ki (nM), affinity constants. The method, then:
as §1, §2
After preincubation a thorough washing was performed. [Life Sci. 32 (1983) 2777-2784]. Control values are represented by the specific binding of (3H)naloxone to membranes preincubated with a buffer and treated in the same way. Heterologous displacement experiments were used to evaluate the affinity of the investigated compounds for (^3 H)naloxone binding sites.

The subject of series [9] is rabbits. In words: effect on respiration on conscious rabbits (III.6, type A/B/C tests). It is filed as in vivo. On the set-up: resp. change ampl.: unit not given here. The protocol:
The method as described above in Example III.5 was used on conscious rabbits of 2,5-3 kg weight. Registration was continued for 3-4 hours. The samples were injected under the skin of the neck and the respiration parameters were registered at intervals of 10 minutes.

Setting [10] is: s.c. on rats, Inactine 35 mg/kg, dose as base.
Setting [11] is: Rattus norvegicus; read-out: hot plate (rat) ED50.
Where [12] appears, read: Rattus norvegicus; read-out: tail flick (rat) ED50.
The mark [13] stands for this setting: Mus musculus; read-out: writhing test (mice) ED50.
Where [14] appears, read: type A: DP 0.01 mg/kg s.c., 10'.
[15] abbreviates: type A: DP 0.01 mg/kg s.c., 20'.
Where [16] appears, read: type A: DP 0.025 mg/kg s.c., 10'.
[17] abbreviates: type A: DP 0.025 mg/kg s.c., 20'.
Setting [18] is: type A: DP 0.05 mg/kg s.c., 10'.
Setting [19] is: type C: DP 0.25 mg/kg together with morphine 5 mg/kg s.c., 10'.
Setting [20] is: type C: DP 0.25 mg/kg together with morphine 5 mg/kg s.c., 20'.
[21] abbreviates: type C: DP 0.25 mg/kg together with morphine 5 mg/kg s.c., 30'.
Where [22] appears, read: type C: DP 0.25 mg/kg together with morphine 5 mg/kg s.c., 50'.
[23] abbreviates: OX 0.5 mg/kg s.c. + naloxone 0.25 mg/kg, 10 min.
Where [24] appears, read: OX 0.5 mg/kg s.c., 10 min (line before naloxone).
The mark [25] stands for this setting: type A: OX 0.1 mg/kg s.c. +5 mg/kg morphine, 30 min.
Setting [26] is: type A: OX 0.1 mg/kg s.c. +5 mg/kg morphine, 40 min.
The mark [27] stands for this setting: type A: OX 0.1 mg/kg s.c., 10 min.

Molecules are shown by their SMILES. Counter-ions that a name gives are not always drawn. Like-named read-outs stand apart in the source and are kept apart here.

For `CN1CC[C@]23c4c5ccc(O)c4O[C@H]2C(=NNc2ccccc2)CC[C@@]3(O)[C@H]1C5` [oxymorphone phenylhydrazone], in [1], the Ki turned out to be 20 nM.

`CN1CC[C@]23c4c5ccc(O)c4O[C@H]2C(=NN)CC[C@@]3(O)[C@H]1C5` [oxymorphone hydrazone]: in series [1], the Ki stood at 2 nM.

Consider `COc1ccc2c3c1O[C@H]1C(=NNC(N)=O)CC[C@H]4[C@@H](C2)N(C)CC[C@]314` [Dihydrocodeinone-semicarbazone.HCl, dihydrocodeinone-semicarbazone], for which the “ED500 % (dose increasing narcosis to five times the control)” value in [2] (setting [10]) is 1,0 mg/kg. Moreover, the ED50 in [3] (setting [11]) stood at 0.38 mg/kg; in series [5] (setting [12]), 0.35 mg/kg. Also, in series [3] (rat), the “hot plate (rat) ED50” value is recorded as 0,38 mg/kg. Further, in series [4], the ED100 stood at 10 mg/kg.

Regarding `CN1CC[C@]23c4c5ccc(O)c4O[C@H]2C(=NNC(N)=O)CC[C@H]3[C@H]1C5` [dihydromorphinone semicarbazone], the Ki in series [1] was determined as 3 nM.

In the case of `CN1CC[C@]23c4c5ccc(O)c4O[C@H]2C(=NNc2ccccc2)CC[C@H]3[C@H]1C5` [dihydromorphinone phenylhydrazone], in series [1], the Ki was found to be 5 nM.

On to `COc1ccc2c3c1O[C@H]1C(=O)CC[C@H]4[C@@H](C2)N(C)CC[C@]314` [Dihydrocodeinone, reference compound], for which the “ED500 % (dose increasing narcosis to five times the control)” value in series [2] (setting [10]) is listed as 1,9 mg/kg. For the same compound, in [6] (10-5500 μg/kg i.v., s.c.), the respiration effect entry was “depression”, the respiration frequency/min. entry is “.dwnarw” and the respiration volume result is given as “.dwnarw”. Also, the “influence on the respiratory depression effect of morphine (in words)” value in [6] (rabbit, in vivo) is “unambiguously potentiate the respiratory depression effect of morphine”. In addition, in [6] (rabbit, in vivo, sc), the “respiratory depression by the compound alone (in words)” value is recorded as “cause respiratory depression”. Besides, in [3] (setting [11]), the ED50 is 2.2 mg/kg. Moreover, the ED50 in series [7] (setting [13]) worked out at 0.9 mg/kg. Moreover, in series [4], the ED100 was 4.9 mg/kg. In series [5] (setting [12]), the ED50 amounted to 0.98 mg/kg.

For the compound `CN1CC[C@]23c4c5ccc(O)c4O[C@H]2C(=NO)CC[C@H]3[C@H]1C5` [dihydromorphinone oxime], the Ki in series [1] turned out to be 2 nM.

For `CN1CC[C@]23c4c5ccc(O)c4O[C@H]2C(=NO)CC[C@@]3(O)[C@H]1C5` [oxymorphone oxime], in series [1], the Ki amounted to 2 nM.

As for `COc1ccc2c3c1O[C@H]1C(=NNC(N)=S)CC[C@@]4(O)[C@@H](C2)N(C)CC[C@]314` [Oxycodone-thiosemicarbazone.HCl, Oxycodone-thiosemicarbazone], the ED50 in series [3] (setting [11]) was determined as 8.5 mg/kg; in series [5] (setting [12]), 4.5 mg/kg. Besides, the ED100 in series [4] was 100 mg/kg.

Consider `COc1ccc2c3c1O[C@H]1C(=NNC(N)=S)CC[C@H]4[C@@H](C2)N(C)CC[C@]314` [Dihydrocodeinone thio-semicarbazone.HCl, Dihydrocodeinone thio-semicarbazone], for which the results for the ED50 in series [3] (setting [11]) and in series [5] (setting [12]) were 1.7 mg/kg and 0.6 mg/kg, respectively. Moreover, in [4], the ED100 amounted to 5 mg/kg.

For the compound `COc1ccc2c3c1O[C@H]1C(=NO)CC[C@H]4[C@@H](C2)N(C)CC[C@]314` [Dihydrocodeinone-oxime, DIHYDROCODEINON-OXIME], the Ki was 53 nM in series [8] and 52 nM in series [1]. The results for the ED50 in [3] (setting [11]), in series [7] (setting [13]) and in [5] (setting [12]) were 4.2 mg/kg, 0.38 mg/kg and 3.7 mg/kg, respectively. For the same compound, the ED100 in [4] stood at 25 mg/kg.

For `COc1ccc2c3c1O[C@H]1C(=NNc4ccccc4)CC[C@H]4[C@@H](C2)N(C)CC[C@]314` [Dihydrocodeinone-phenylhydrazone], the “ED500 % (dose increasing narcosis to five times the control)” value in [2] (setting [10]) was 3,5 mg/kg. Besides, the Ki in [8] and in [1] was 323 nM each time. Also, the ED50 in series [3] (setting [11]) worked out at 2.4 mg/kg; in series [5] (setting [12]), 2.3 mg/kg. For the same compound, the resp. change ampl. in series [9] (setting [14]), in [9] (setting [15]), in series [9] (setting [16]), in series [9] (setting [17]), in [9] (setting [18]) and in series [9] (setting [19]) was 0 throughout. Besides, the resp. change ampl. in series [9] (setting [20]), in series [9] (setting [21]) and in series [9] (setting [22]) was 0 in each case. Besides, the resp. change fr/min result is reported as “+85” in [9] (setting [14]); “+96” in series [9] (setting [15]); “+114” in series [9] (setting [16]); “+114” in series [9] (setting [17]); “+132” in series [9] (setting [18]); “+39” in series [9] (setting [19]). Further, the resp. change fr/min entry is reported as “+19” in [9] (setting [20]), -3 in [9] (setting [21]) and -4 in [9] (setting [22]). Also, the ED100 in series [4] came out at 10.1 mg/kg.

Regarding `COc1ccc2c3c1O[C@H]1C(=NO)CC[C@@]4(O)[C@@H](C2)N(C)CC[C@]314` [Oxycodone-oxime, 14-HYDROXY-DIHYDROCODEINONE-OXIME], in series [2] (rat, in vivo), the “ED500 % (dose increasing narcosis to five times the control)” value is 0,5 mg/kg. Besides, the “potentiation of Inactine narcosis (in words)” value in series [2] (rat, in vivo) is listed as “most effectively prolongated”. For the same compound, the Ki in series [8] and in series [1] was 32 nM in each case. Further, the ED50 stood at 1.8 mg/kg in series [3] (Rattus norvegicus, read-out: hot plate (rat) ED50); 0.11 mg/kg in series [7] (Mus musculus, read-out: writhing test (mice) ED50); 1 mg/kg in [5] (Rattus norvegicus, read-out: tail flick (rat) ED50). Moreover, the resp. change ampl. entry is given as “+30” in series [9] (OX 0.005 mg/kg s.c., 30 min); 0 in [9] (OX 0.025 mg/kg s.c., 30 min); “+40” in [9] (OX 0.1 mg/kg s.c., 30 min); “+50” in series [9] (setting [23]); -50 in series [9] (setting [24]); 0 in series [9] (setting [25]). The resp. change ampl. is given as -40 in [9] (setting [26]) and “+20” in series [9] (setting [27]). The resp. change fr/min result is recorded as “+30” in series [9] (OX 0.005 mg/kg s.c., 30 min); “+28” in series [9] (OX 0.025 mg/kg s.c., 30 min); “+47” in series [9] (OX 0.1 mg/kg s.c., 30 min); “+50” in series [9] (setting [23]); -50 in [9] (setting [24]); “+71” in [9] (setting [25]). The resp. change fr/min in series [9] (setting [26]) is -29; in [9] (setting [27]) it was “+57”. The “respiration number (in words)” value in series [9] (small doses) is “considerably increase the respiration number”. In addition, the ED100 in series [4] came to 10 mg/kg.

Turning to `CN1CC[C@]23c4c5ccc(O)c4O[C@H]2C(=NN)CC[C@H]3[C@H]1C5` [dihydromorphinone hydrazone], the Ki in series [1] was 6 nM.

For `CN1CC[C@]23c4c5ccc(O)c4O[C@H]2C(=NNC(N)=O)CC[C@@]3(O)[C@H]1C5` [oxymorphone semicarbazone], the Ki in series [1] worked out at 4 nM.

One may read the Ki as a dissociation constant, usually derived from enzyme kinetics or from competition with a known ligand. Usually ED50 stands for the midpoint of the dose-response relation.

The values are drawn from patent US5317022A, “Pharmaceutical composition and use” (priority 1991, dated 1994).
